Measurements as given in EP0162330B1, “Use of sterolins and spiroketalins in the production of medicaments for the treatment of psoriasis” (Roecar Holdings (Netherlands Antilles) N.V., priority 1984, dated 1985).

Experiments:
[1] = biological target: T1, 12-lipoxygenase of the platelets (Homo sapiens, UniProt P18054); assay: Influence upon lipoxygenase: thrombin-stimulated washed human platelets (method of Schroer et al); type: cell-based; details: washed human platelets stimulated with thrombin (0.6 iU/ml)
T1 construct: endogenous in cells; host or cells: washed human platelets
T1 sequence (P18054 1-663): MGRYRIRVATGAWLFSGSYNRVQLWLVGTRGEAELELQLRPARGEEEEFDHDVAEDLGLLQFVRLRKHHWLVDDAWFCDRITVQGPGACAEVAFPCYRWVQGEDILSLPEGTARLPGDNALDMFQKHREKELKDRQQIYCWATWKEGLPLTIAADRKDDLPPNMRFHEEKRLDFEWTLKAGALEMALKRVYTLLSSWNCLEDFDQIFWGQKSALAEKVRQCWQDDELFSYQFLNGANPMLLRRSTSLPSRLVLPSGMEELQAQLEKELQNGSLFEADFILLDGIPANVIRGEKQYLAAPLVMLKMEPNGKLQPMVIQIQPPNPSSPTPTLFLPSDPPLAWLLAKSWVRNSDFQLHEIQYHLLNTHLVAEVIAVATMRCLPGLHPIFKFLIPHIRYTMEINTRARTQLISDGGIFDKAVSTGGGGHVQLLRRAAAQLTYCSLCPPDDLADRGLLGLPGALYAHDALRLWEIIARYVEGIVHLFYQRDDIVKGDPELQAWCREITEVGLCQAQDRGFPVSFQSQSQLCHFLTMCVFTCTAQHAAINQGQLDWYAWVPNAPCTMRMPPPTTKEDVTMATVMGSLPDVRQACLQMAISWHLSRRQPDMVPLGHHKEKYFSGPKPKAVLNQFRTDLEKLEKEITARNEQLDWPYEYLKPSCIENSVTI
Description: The tests were performed according to the method devised by Schroer et al, Naunyn-Schmiedeberg's Arch. Pharmak. 313, 69 (1980). According to this method washed human platelets are stimulated with thrombin (0.6 iU/ml). Arachidonic acid released from the platelets upon stimulation is transformed by the 12-lipoxygenase of the platelets into 12-hydro-peroxy-eicosatetraenoic acid (12-HPETE).

12-lipoxygenase [2] = assay: In vitro lipoxygenase inhibition in leucocyte preparations, arachidonic acid products by radio thin-layer chromatography; type: cell-based, human
Description: (§1) Washed and resuspended platelets or leucocytes were incubated in one test with a saturated solution of β-sitosterol β-D-glucoside (23,5 mg/10ml ethanol) and in a second test with a 10 times oversaturated solution with addition of 0.25 µCi arachidonic acid for 5 minutes. The test mixtures were then acidified and extracted with ethyl acetate. Separation of the reaction products was performed by radio-thinlayer-chromatography.
(§2) The number of leukocytes in test 1 was 2000 and in test 2, 1600 and the number of platelets in the platelets test 1 was 140 000 and in test 2 it was 240 000.
(§3) After incubation with the test substance a significant inhibition of the lipoxygenase products can be shown when using platelets leading to a near complete synthesis inhibition and accumulation of non-metabolized arachidonic acid. As far as leucocytes are concerned, there is a dosage-dependant inhibitory effect of the lipoxygenase whereby the changes are mainly based on 12-hydroxyeicoscatetraenoic acid (12-HETE) and 12-HPETE while lesser changes are observed for HHT.

12-lipoxygenase [3] = biological target: T2, 12-lipoxygenase (Homo sapiens, UniProt P18054); assay: In vitro lipoxygenase inhibition in platelets, arachidonic acid products by radio thin-layer chromatography; type: cell-based; details: 120' saturated solution
T2 construct: endogenous in cells; host or cells: washed human platelets
T2 sequence (P18054 1-663): T1 sequence (P18054 1-663)
Description: as §1, §2, §3

[4] = test system: antigen-induced SRS-A (leukotriene) mediated bronchoconstriction; assay: In vivo antigen-induced SRS-A (leukotriene) mediated bronchoconstriction (method of Anderson et al); parameters: species or system guinea pigs; details: n=8
Excerpt: The effect of β-Sitosterol-β-D-glucoside was investigated on antigen-induced SRS-A (leukotriene) mediated bronchoconstriction according to the method of Anderson et al (Br. J. Pharmacol. 78,67-74, 1983). Twenty-eight to thirty-three days after the single ovalbumine dose the guinea pigs were anaesthetised and surgically prepared for intravenous administration of the test compounds and measuring the ventilatory pressure. Prior to the antigen (ovalbumine) challenge the animals were adequately pretreated with indomethacin, pyrilamine and propanolol to eliminate the effect of other interfering mediators released during the anaphylactic reaction. The test substance was administered 1 minute before the ovalbumine challenge.
The vehicle (50% DMSO in water) served as a control. Phenindone was used as the standard reference substance.

[5] = 10 mg/kg i.v., 1 minute after challenge

Q: CCCCCC#CCC#CCC#CCC#CCCCC(=O)O [ETYA, 5,8,11,14-eicosatetraynoic acid, reference compound] was tested. Which inhibition at 10 µM ([1]; 10 µM/ml) did it give?
A: 97%

Q: Which inhibition ([1]; 5 µM/ml) does the source give for Diosgeninglucoside here?
A: 13%

Q: What about the inhibition ([1]; 10 µM/ml) of the same compound?
A: 31%

Q: What about the inhibition ([1]; 50 uM/ml) of the same compound?
A: 60%

Q: For CC[C@H](CC[C@@H](C)[C@H]1CC[C@H]2[C@@H]3CC=C4C[C@@H](O[C@@H]5O[C@H](CO)[C@@H](O)[C@H](O)[C@H]5O)CC[C@]4(C)[C@H]3CC[C@]12C)C(C)C [β-Sitosterol- β-D-glucoside, β-sitosterol β-D-glucoside], which “12 HETE 12 HPETE in %” value (12-lipoxygenase [2]; test 1, leukocytes (2000), 30' oversaturated (10 times) solution, normal 50.2) is on record?
A: 12.4%

Q: And the “12 HETE 12 HPETE in %” value (12-lipoxygenase [2]; test 1, leukocytes (2000), 30' saturated solution (23,5 mg/10ml ethanol), normal 50.2)?
A: 35.9%

Q: What about the “12 HETE 12 HPETE in %” value (12-lipoxygenase [2]; test 1, leukocytes (2000), 120' saturated solution, normal 50.2) of the same compound?
A: 13.4%

Q: What about the “12 HETE 12 HPETE in %” value (12-lipoxygenase [2]; test 2, leukocytes (1600), 30' oversaturated (10 times) solution, normal 48.0) of the same compound?
A: 22.7%

Q: What about the “12 HETE 12 HPETE in %” value (12-lipoxygenase [2]; test 2, leukocytes (1600), 30' saturated solution, normal 48.0) of the same compound?
A: 37.0%

Q: And the “12 HETE 12 HPETE in %” value (12-lipoxygenase [2]; test 2, leukocytes (1600), 120' saturated solution, normal 48.0)?
A: 2.7%

Q: What about the “12 HETE 12 HPETE in %” value (12-lipoxygenase [3]; test 1, platelets (140 000), normal 39.8) of the same compound?
A: 3.8%

Q: What about the “12 HETE 12 HPETE in %” value (12-lipoxygenase [3]; test 2, platelets (240 000), normal 35.0) of the same compound?
A: 11.9%

Q: And the “MEAN CHANGE (AS % OF MAX ±S.E.M.) IN VENTILATION PRESSURE AFTER OVALBUMIN ADMINISTRATION” value ([4]; 1 mg/kg i.v., 1 minute after challenge)?
A: 5.8 ±4.5 % OF MAX

Q: What about the “MEAN CHANGE (AS % OF MAX ±S.E.M.) IN VENTILATION PRESSURE AFTER OVALBUMIN ADMINISTRATION” value [4, 5] of the same compound?
A: 1.8 ±2.8 % OF MAX

Q: What about the “MEAN CHANGE (AS % OF MAX ±S.E.M.) IN VENTILATION PRESSURE AFTER OVALBUMIN ADMINISTRATION” value ([4]; 10 mg/kg i.v., 2 minutes after challenge) of the same compound?
A: 31.0 ±9.8 % OF MAX

Q: O=C1CCN(c2ccccc2)N1 [Phenidone, reference compound] was tested. Which “MEAN CHANGE (AS % OF MAX ±S.E.M.) IN VENTILATION PRESSURE AFTER OVALBUMIN ADMINISTRATION” value [4, 5] did it give?
A: 3.1 ±1.0 % OF MAX
